Measurements as given in patent US7279548B2, “Identification and isolation of novel polypeptides having WW domains and methods of using same” (Cytogen Corporation, priority 1996, dated 2007).

Legend:
[1] = test system: twelve individual novel WW domains of WWP1, WWP2, WWP3 and WWP4; experiment: ELISA based cross affinity mapping, whole panel of novel WW domains; assay type: binding, human; settings: biotinylated peptide-streptavidin/alkaline phosphatase complex, GST fusion proteins
Description: (§1) The 16 day mouse embryo cDNA expression library was diluted 1:1000 in SM solution (100 mM NaCl, 8 mM MgSOv4, 50 mM Tris HCl pH 7.5, 0.01% gelatin). To a sterile test tube, 2 μl of diluted mouse embryo library, 100 μl of 10 mM CaCl2, 100 μl of 10 mM MgCl2 and 100 μl of BL21(DE3)pLysE bacterial cells (grown overnight) were added and incubated for 30 minutes at 37° C. The contents of the tube were mixed with 3 ml of 0.6% top agarose, containing […] chloramphenicol, and poured onto a 2xYT plate (90 mm diameter). For a large primary screen, 10–20 plates were prepared with 3×10^4 pfu per plate. After 6 hours incubation at 37° C., a nitrocellulose filter soaked in 10 mM isopropyl-β-D-thiogalactopyranoside (IPTG) was overlaid on each plate and incubated 3–6 hours at 37° C. Before the filters were removed from the plates, they were marked asymmetrically with India ink in a 18 gauge syringe needle. The plates were stored at 4° C. until ready for the secondary screen. The filters were washed with PBS (137 mM NaCl, 2.7 mM KCl, 4.3 mM Na2HPO4, 1.4 mM KH2PO4)-0.05% Triton X-100 three times at room temperature, 15 minutes each wash, and then placed in a plastic bag containing non-specific blocking solution (PBS-2% BSA) for one hour. In the meantime, 1 ml of 1 mM biotinylated peptide in PBS-0.1% Tween 20 was added to 20 ml of 1 mg/ml streptavidin-alkaline phosphatase (SA-AP) in PBS-0.1% Tween 20 and incubated at 4° C. for 30 minutes. […] Excess biotin-binding sites would then be blocked by addition of 500 pmol biotin. […] Ten μl of 0.1 mM biotin would then be added, and the solution incubated for an additional 15 min.
(§2) To determine the ligand preferences of the novel WW omain-containing clones described in Sections 6.1 and 6.1.1, as well as addressing the issue of whether peptides containing PPPPY (SEQ ID NO:3)-like motifs derived from a variety of proteins could also serve as recognition units and bind to these clones, a cross affinity mapping experiment was performed (FIGS. 15A–D). The peptides shown in FIGS. 15A–D were synthesized, biotinylated, complexed with streptavidin-alkaline phosphatase, and tested in an ELISA based assay for their ability to bind to the twelve individual novel WW domains of WWP1, WWP2, WWP3 and WWP4 which were expressed as GST fusion proteins. The ELISA based cross-affinity experiments were performed essentially as described by Sparks et al. (1996, Proc. Natl. Acad. Sci. 93:1540–1544) with the following modifications. Briefly, microtiter wells were coated with 1–5 μg of fusion protein in 100 mM NaHCO3, blocked with SuperBlock TBS (Pierce) and washed four times with PBS, 0.05% Tween 20. Specific peptide-streptavidin/alkaline phosphatase complexes were added as above and unbound complexes washed five times with PBS, 0.05% Tween 20. Following addition of PNP substrate (p-nitrophenyl phosphate, Kirkegard & Perry Labs), peptide binding was quantitated after 30 min. at O.D. 405 nm. Relative binding measurements from three independent determinations were assigned to a scale as follows: O.D. units 0–0.5=(−), 0.5–1.0=(+), 1.0–2.0=(++), 2.0–3.0=(+++), >3.0=(++++). Peptide binding to human Fyn and Lyn SH3 and SH2 domains was assessed by a filter binding assay (see Section 6.1 and Sparks et al., 1996, Proc. Natl. Acad. Sci 93:1540–1544). Peptide sequences used in cross-affinity experiments correspond to segments of the following genes: RasGap (Database accession # P20936), AP-2 (P05549), p53BP-2 (U09582), IL-6Rα (P22272), voltage-gated chloride channel CLCN5 (X91906), IL-2Rγ (D111086), RSV (D10652), HTLV-1 (D13784), β-dystroglycan (L19711), Formin (X53599), amiloride-sensitive epithelial Na^+ channel ENaCα (P37089), ENaCβ (X87159) and ENaCγ (X87160), muscarinic acetylcholine receptor M4 AChR (P08173), and c-Abl (P00522). Src and Crk SH3 binding peptide sequences were derived from a phage display random peptide library screen (Section 6.1 and Sparks et al., 1996, Proc. Natl. Acad. Sci. 93:1540–1544).

[2] = test system: WW domains of WWP4 expressed as GST fusion proteins; experiment: ELISA based cross affinity mapping, WW domains of WWP4; assay type: binding, human; settings: biotinylated peptide-streptavidin/alkaline phosphatase complex; GST fusion proteins; ELISA
Description: as §1, §2

[3] = test system: WW domains of WWP2 expressed as GST fusion proteins; experiment: ELISA based cross affinity mapping, WW domains of WWP2; assay type: binding, human; settings: biotinylated peptide-streptavidin/alkaline phosphatase complex; GST fusion proteins; ELISA
Description: as §1, §2

[4] = test system: WW domains of WWP1 expressed as GST fusion proteins; experiment: ELISA based cross affinity mapping, WW domains of WWP1; assay type: binding, human; settings: biotinylated peptide-streptavidin/alkaline phosphatase complex; GST fusion proteins; ELISA
Description: as §1, §2

[5] = target: T1, WWP3 WW domain expressed as GST fusion protein (Homo sapiens, UniProt Q96QZ7); experiment: ELISA based cross affinity mapping, WWP3 WW domain; assay type: binding; settings: biotinylated peptide-streptavidin/alkaline phosphatase complex
T1 construct: made in house
T1 sequence (Q96QZ7 300-337 limits assumed): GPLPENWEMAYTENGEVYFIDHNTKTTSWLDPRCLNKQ
Description: The 16 day mouse embryo cDNA expression library was diluted 1:1000 in SM solution (100 mM NaCl, 8 mM MgSOv4, 50 mM Tris HCl pH 7.5, 0.01% gelatin). To a sterile test tube, 2 μl of diluted mouse embryo library, 100 μl of 10 mM CaCl2, 100 μl of 10 mM MgCl2 and 100 μl of BL21(DE3)pLysE bacterial cells (grown overnight) were added and incubated for 30 minutes at 37° C. The contents of the tube were mixed with 3 ml of 0.6% top agarose, containing […] chloramphenicol, and poured onto a 2xYT plate (90 mm diameter). For a large primary screen, 10–20 plates were prepared with 3×10^4 pfu per plate. After 6 hours incubation at 37° C., a nitrocellulose filter soaked in 10 mM isopropyl-β-D-thiogalactopyranoside (IPTG) was overlaid on each plate and incubated 3–6 hours at 37° C. Before the filters were removed from the plates, they were marked asymmetrically with India ink in a 18 gauge syringe needle. The plates were stored at 4° C. until ready for the secondary screen. The filters were washed with PBS (137 mM NaCl, 2.7 mM KCl, 4.3 mM Na2HPO4, 1.4 mM KH2PO4)-0.05% Triton X-100 three times at room temperature, 15 minutes each wash, and then placed in a plastic bag containing non-specific blocking solution (PBS-2% BSA) for one hour. In the meantime, 1 ml of 1 mM biotinylated peptide in PBS-0.1% Tween 20 was added to 20 ml of 1 mg/ml streptavidin-alkaline phosphatase (SA-AP) in PBS-0.1% Tween 20 and incubated at 4° C. for 30 minutes. As an alternative method of forming multivalent complexes, 50 pmol biotinylated peptide could have been incubated with 2 μg SA-AP (for a biotin:biotin-binding site ratio of 1:1). Excess biotin-binding sites would then be blocked by addition of 500 pmol biotin. As a further alternative, 31.2 μl of 1 mg/ml SA-AP could have been incubated with 15 μl of 0.1 mM biotinylated peptide for 30 min at 4° C. Ten μl of 0.1 mM biotin would then be added, and the solution incubated for an additional 15 min.
as §2, with “Peptide sequences used in cross-affinity experiments correspond to segments of the following genes: RasGap (Database accession # P20936), AP-2 (P05549), p53BP-2 (U09582), IL-6Rα (P22272), voltage-gated chloride channel CLCN5 (X91906), IL-2Rγ (D111086), RSV (D10652), HTLV-1 (D13784), β-dystroglycan (L19711), Formin (X53599), amiloride-sensitive epithelial Na^+ channel ENaCα (P37089), ENaCβ (X87159) and ENaCγ (X87160), muscarinic acetylcholine receptor M4 AChR (P08173), and c-Abl (P00522). Src and Crk SH3 binding peptide sequences were derived from a phage display random peptide library screen (Section 6.1 and Sparks et al., 1996, Proc. Natl. Acad. Sci. 93:1540–1544).” left out

Row | binding to WW domains of WWP4 [2] | binding to WW domains of WWP2 [3] | binding to WW domains of WWP1 [4] | Substance | binding to the novel WW domains (WWP1, WWP2, WWP3, WWP4 panel) [1] | binding to WWP3 WW domain [5]
1 |  |  |  | AP-2: peptide with PPPPY-like motif from AP-2 transcription factor (P05549) (PYFPPPYQPI) | bound to WW domains from one or more of the four novel clones | 
2 | do not bind | do not bind | do not bind | ENaCβ-P616L: mutant ENaCβ peptide, Liddle syndrome missense substitution, PPPNY to PPLNY (PGTPPLNYDSLRL) |  | 
3 | do not bind | do not bind | do not bind | ENaCβ-Y618H: mutant ENaCβ peptide, Liddle syndrome missense substitution, PPPNY to PPPNH (PGTPPPNHDSLRL) |  | 
4 |  |  |  | IL-2R: peptide from interleukin receptor IL-2R (YWAPPCYTLK) | bound to WW domains from one or more of the four novel clones | 
5 |  |  |  | IL-6R: peptide from interleukin receptor IL-6R (TTSPPPPPYS) | bound to WW domains from one or more of the four novel clones | 
6 |  |  |  | RasGap: peptide with PPPPY-like motif from a segment of RasGap (P20936) (PLPPPPYLPP) | bound to WW domains from one or more of the four novel clones | 
7 | is not | is not |  | WBP-2A-Pro3: WBP-2A peptide with substitution of the second proline (SGSGYVQPPAPPYPGPM) |  | 
8 | absolutely essential for binding | absolutely essential for binding | absolutely essential for binding | WBP-2A-Pro4: WBP-2A peptide with substitution of the third proline residue (SGSGYVQPPPAPYPGPM) |  | absolutely essential for binding
9 | abolished binding activity | abolished binding activity | abolished binding activity | bWW060: alanine substitution variant of the tyrosine residue of the PPPPY-like domain of WWP4 (NRLDLPPAETFED) |  | 
10 | abolished binding activity | abolished binding activity | abolished binding activity | bWW062: alanine substitution variant of the tyrosine residue of the PPPPY-like domain of WWP2 (NRLDLPPAKSYEQ) |  | 
11 |  |  |  | p53BP-2: peptide with PPPPY-like motif from p53 binding protein-2 (U09582) (YPPYPPPPYPSG) | bound to WW domains from one or more of the four novel clones | 
12 |  |  |  | β dystroglycan-2: second peptide from dystrophin interacting molecule β-dystroglycan (YRSPPPYVPP) | bound to WW domains from one or more of the four novel clones | 
13 |  |  |  | β-dystroglycan-1: peptide from dystrophin interacting molecule β-dystroglycan (L19711) (PLPPPEYPNQ) | bound to WW domains from one or more of the four novel clones | 

Row | Substance | binding to WW domains of WWP4 [2] | binding to WW domains of WWP2 [3] | binding to WW domains of WWP1 [4] | binding to the novel WW domains (WWP1, WWP2, WWP3, WWP4 panel) [1] | binding to WWP3 WW domain [5]
14 | biotin - PGTPPPKYNTLRL [ENaCγ] | positive interaction | positive interaction | positive interaction |  | positive interaction
15 | biotin - PGTPPPNYDSLRL [ENaCβ] | positive interaction | positive interaction | positive interaction |  | positive interaction
